From patent publication US20220177477A1 (Central China Normal University, priority 2019, published 2022)

Each compound was assayed against T1, TRKA (Homo sapiens, UniProt P04629) (assay: In vitro biochemical HTRF KinEASE kinase inhibition, TRKA). Details: not given.
T1 construct: purchased Carna Biosciences 08-186
T1 sequence (P04629 33-796): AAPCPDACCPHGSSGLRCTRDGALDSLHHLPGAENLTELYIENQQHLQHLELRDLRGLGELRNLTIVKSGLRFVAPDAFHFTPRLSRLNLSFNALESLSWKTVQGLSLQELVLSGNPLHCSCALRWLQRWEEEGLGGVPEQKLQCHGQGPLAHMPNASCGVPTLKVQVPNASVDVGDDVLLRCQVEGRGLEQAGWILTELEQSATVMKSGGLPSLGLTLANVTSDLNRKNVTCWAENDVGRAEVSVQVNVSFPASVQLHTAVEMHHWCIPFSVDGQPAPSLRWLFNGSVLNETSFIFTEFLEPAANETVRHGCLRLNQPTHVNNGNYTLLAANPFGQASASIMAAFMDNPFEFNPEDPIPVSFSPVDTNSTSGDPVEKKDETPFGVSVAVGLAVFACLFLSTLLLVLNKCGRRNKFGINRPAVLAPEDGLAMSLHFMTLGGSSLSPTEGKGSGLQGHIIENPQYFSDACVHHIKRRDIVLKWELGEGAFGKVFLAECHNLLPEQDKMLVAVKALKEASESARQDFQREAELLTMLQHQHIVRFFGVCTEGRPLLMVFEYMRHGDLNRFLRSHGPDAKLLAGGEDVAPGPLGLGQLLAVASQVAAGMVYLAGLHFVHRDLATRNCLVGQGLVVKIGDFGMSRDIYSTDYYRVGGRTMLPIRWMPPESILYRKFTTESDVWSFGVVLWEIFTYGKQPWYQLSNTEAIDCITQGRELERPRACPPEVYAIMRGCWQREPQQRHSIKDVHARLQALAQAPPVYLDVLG

Row | SMILES | IC50 [nM]
1 | CC(Nc1ccn2ncc(-c3cn[nH]c3)c2n1)c1cc(F)ccc1OCC#N (stereo not drawn) [Compound b11-36, 2-(2-(1-((3-(1H-pyrazol-4-yl)pyrazolo [1,5-a]pyrimidin-5-yl)amino)ethyl)-4-fluorophenoxy) acetonitrile] | 88.6

Same assay, conditions: wild-type kinase, final ATP 3.727 μmol/L; read-out: TRKA IC50

Row | SMILES | IC50 [nM]
2 | CC(Nc1ccn2ncc(-c3cnn(CC(F)F)c3)c2n1)c1cc(F)ccc1OCC(F)F (stereo not drawn) [Compound 6, N-(1-(2-(2,2-difluoroethoxy)-5-fluorophenyl)ethyl)-3-(1-(2,2-difluoroethyl)-1H-pyrazol-4-yl) pyrazolo [1,5-a] pyrimidin-5-amine] | 12.4
3 | CC(Nc1ccn2ncc(-c3cnn(S(C)(=O)=O)c3)c2n1)c1cc(F)ccc1OCC(F)F (stereo not drawn) [Compound 13, N-(1-(2-(2,2-difluoroethoxy)-5-fluorophenyl)ethyl)-3-(1-(methylsulfonyl)-1H-pyrazol-4-yl) pyrazolo [1,5-a] pyrimidin-5-amine] | 10.4
4 | CC(Nc1ccn2ncc(-c3cnn(C)c3)c2n1)c1cc(F)cc(F)c1OCC(F)F (stereo not drawn) [Compound 15, N-(1-(2-(2,2-difluoroethoxy)-3,5-difluorophenyl)ethyl)-3-(1-methyl-1H-pyrazol-4-yl) pyrazolo [1,5-a] pyrimidin-5-amine] | 11.7
5 | CC(Nc1ccn2ncc(-c3cnn(C4CCCCC4O)c3)c2n1)c1cc(F)ccc1O (stereo not drawn) [Compound a3-4, 4-fluoro-2-(1-((3-(1-(2-hydroxycyclohexyl)-1H-pyrazol-4-yl)pyrazolo [1,5-a]pyrimidin-5-yl)amino)ethyl) phenol] | 24.2
6 | COCCOc1ccc(F)cc1C(C)Nc1ccn2ncc(-c3cnn(C4CCOCC4)c3)c2n1 (stereo not drawn) [Compound a9-14, N-(1-(5-fluoro-2-(2-methoxyethoxy)phenyl)ethyl)-3-(1-(tetrahydro-2H-pyran-4-yl)-1H-pyrazol-4-yl) pyrazolo [1,5-a] pyrimidin-5-amine] | 67.8
7 | CC(Nc1ccn2ncc(-c3cnn(C(C)C)c3)c2n1)c1cc(F)ccc1OCCF (stereo not drawn) [Compound a13-20, N-(1-(5-fluoro-2-(2-fluoroethoxy)phenyl)ethyl)-3-(1-isopropyl-1H-pyrazol-4-yl) pyrazolo [1,5-a] pyrimidin-5-amine] | 20.2
8 | CC(Nc1ccn2ncc(-c3cnn(C4CC4)c3)c2n1)c1cc(F)ccc1OCCF (stereo not drawn) [Compound a14-21, 3-(1-cyclopropyl-1H-pyrazol-4-yl)-N-(1-(5-fluoro-2-(2-fluoroethoxy)phenyl)ethyl) pyrazolo [1,5-a] pyrimidin-5-amine] | 12
9 | CC(Nc1ccn2ncc(-c3cnn(CCO)c3)c2n1)c1cc(F)ccc1OCCF (stereo not drawn) [Compound a15-22, 2-(4-(5-((1-(5-fluoro-2-(2-fluoroethoxy)phenyl)ethyl)amino)pyrazolo [1,5-a]pyrimidin-3-yl)-1H-pyrazol-1-yl) ethanol] | 7.9
10 | CC(Nc1ccn2ncc(-c3cnn(CC(F)F)c3)c2n1)c1cc(F)ccc1OCCF (stereo not drawn) [Compound a16-23, 3-(1-(2,2-difluoroethyl)-1H-pyrazol-4-yl)-N-(1-(5-fluoro-2-(2-fluoroethoxy)phenyl)ethyl) pyrazolo [1,5-a] pyrimidin-5-amine] | 9
11 | CC(Nc1ccn2ncc(-c3cnn(C4CCCCC4O)c3)c2n1)c1cc(F)ccc1OCCF (stereo not drawn) [Compound a18-25, 2-(4-(5-((1-(5-fluoro-2-(2-fluoroethoxy)phenyl)ethyl)amino)pyrazolo [1,5-a]pyrimidin-3-yl)-1H-pyrazol-1-yl) cyclohexan-1-ol] | 9
12 | CC(Nc1ccn2ncc(-c3cnn(C4CCOCC4)c3)c2n1)c1cc(F)ccc1OCCF (stereo not drawn) [Compound a19-26, N-(1-(5-fluoro-2-(2-fluoroethoxy)phenyl)ethyl)-3-(1-(tetrahydro-2H-pyran-4-yl)-1H-pyrazol-4-yl) pyrazolo [1,5-a] pyrimidin-5-amine] | 15.8
13 | CC(=O)n1cc(-c2cnn3ccc(NC(C)c4cc(F)ccc4OCCF)nc23)cn1 (stereo not drawn) [Compound a21-28, 1-(4-(5-((1-(5-fluoro-2-(2-fluoroethoxy)phenyl)ethyl)amino)pyrazolo [1,5-a]pyrimidin-3-yl)-1H-pyrazol-1-yl) ethanone] | 5.3
14 | CC(Nc1ccn2ncc(-c3cnn(S(C)(=O)=O)c3)c2n1)c1cc(F)ccc1OCCF (stereo not drawn) [Compound a22-29, N-(1-(5-fluoro-2-(2-fluoroethoxy)phenyl)ethyl)-3-(1-(methylsulfonyl)-1H-pyrazol-4-yl) pyrazolo [1,5-a] pyrimidin-5-amine] | 14.6
15 | CC(Nc1ccn2ncc(-c3cnn(C4CCOCC4)c3)c2n1)c1cc(F)ccc1OCCCF (stereo not drawn) [Compound a25-35, N-(1-(5-fluoro-2-(3-fluoropropoxy)phenyl)ethyl)-3-(1-(tetrahydro-2H-pyran-4-yl)-1H-pyrazol-4-yl) pyrazolo [1,5-a] pyrimidin-5-amine] | 24.8
16 | CC(Nc1ccn2ncc(-c3cnn(C)c3)c2n1)c1cc(F)ccc1OCC1CCOCC1 (stereo not drawn) [Compound a28-43, N-(1-(5-fluoro-2-((tetrahydro-2H-pyran-4-yl)methoxy)phenyl)ethyl)-3-(1-methyl-1H-pyrazol-4-yl) pyrazolo [1,5-a] pyrimidin-5-amine] | 110
17 | CC(Nc1ccn2ncc(-c3cn[nH]c3)c2n1)c1cc(F)ccc1O (stereo not drawn) [Compound b1-1, 2-(1-((3-(1H-pyrazol-4-yl)pyrazolo [1,5-a]pyrimidin-5-yl)amino)ethyl)-4-fluorophenol] | 9.5
18 | COc1ccc(F)cc1C(C)Nc1ccn2ncc(-c3cn[nH]c3)c2n1 (stereo not drawn) [Compound b2-5, N-(1-(5-fluoro-2-methoxyphenyl)ethyl)-3-(1H-pyrazol-4-yl) pyrazolo [1,5-a]pyrimidin-5-amine] | 15.2
19 | COCCOc1ccc(F)cc1C(C)Nc1ccn2ncc(-c3cn[nH]c3)c2n1 (stereo not drawn) [Compound b6-15, N-(1-(5-fluoro-2-(2-methoxyethoxy)phenyl)ethyl)-3-(1H-pyrazol-4-yl) pyrazolo [1,5-a] pyrimidin-5-amine] | 24
20 | CC(Nc1ccn2ncc(-c3cn[nH]c3)c2n1)c1cc(F)ccc1OCC1CCOCC1 (stereo not drawn) [Compound b15-42, N-(1-(5-fluoro-2-((tetrahydro-2H-pyran-4-yl)methoxy)phenyl)ethyl)-3-(1H-pyrazol-4-yl) pyrazolo [1,5-a] pyrimidin-5-amine] | 55

The next lines start with the values.

Row | IC50 [nM] | SMILES
21 | 11.4 | CC(Nc1ccn2ncc(-c3cnn(C4CCCCC4O)c3)c2n1)c1cc(F)ccc1OCC(F)F (stereo not drawn) [Compound 9, 2-(4-(5-((1-(2-(2,2-difluoroethoxy)-5-fluorophenyl)ethyl)amino)pyrazolo [1,5-a]pyrimidin-3-yl)-1H-pyrazol-1-yl) cyclohexan-1-ol]
22 | 11.8 | CC(Nc1ccn2ncc(-c3cnn(C4CCOCC4)c3)c2n1)c1cc(F)ccc1OCC(F)F (stereo not drawn) [Compound 11, N-(1-(2-(2,2-difluoroethoxy)-5-fluorophenyl)ethyl)-3-(1-(tetrahydro-2H-pyran-4-yl)-1H-pyrazol-4-yl) pyrazolo [1,5-a] pyrimidin-5-amine]
23 | 18.3 | CC(Nc1ccn2ncc(-c3cnn(C)c3)c2n1)c1ccccc1OCC(F)F (stereo not drawn) [Compound 17, N-(1-(2-(2,2-difluoroethoxy)phenyl)ethyl)-3-(1-methyl-1H-pyrazol-4-yl) pyrazolo [1,5-a] pyrimidin-5-amine]
24 | 9 | CC(Nc1ccn2ncc(-c3cnn(C)c3)c2n1)c1cc(F)ccc1O (stereo not drawn) [Compound a1-2, 4-fluoro-2-(1-((3-(1-methyl-1H-pyrazol-4-yl)pyrazolo [1,5-a]pyrimidin-5-yl)amino)ethyl) phenol]
25 | 4 | CC(Nc1ccn2ncc(-c3cnn(CCO)c3)c2n1)c1cc(F)ccc1OC(F)F (stereo not drawn) [Compound a5-9, 2-(4-(5-((1-(2-(difluoromethoxy)-5-fluorophenyl)ethyl)amino)pyrazolo [1,5-a]pyrimidin-3-yl)-1H-pyrazol-1-yl) ethan-1-ol]
26 | 26.5 | CC(Nc1ccn2ncc(-c3cnn(C4CCOCC4)c3)c2n1)c1cc(F)ccc1OC(F)F (stereo not drawn) [Compound a6-10, N-(1-(2-(difluoromethoxy)-5-fluorophenyl)ethyl)-3-(1-(tetrahydro-2H-pyran-4-yl)-1H-pyrazol-4-yl) pyrazolo [1,5-a] pyrimidin-5-amine]
27 | 23 | CCOc1ccc(F)cc1C(C)Nc1ccn2ncc(-c3cnn(C4CCOCC4)c3)c2n1 (stereo not drawn) [Compound a7-12, N-(1-(2-ethoxy-5-fluorophenyl)ethyl)-3-(1-(tetrahydro-2H-pyran-4-yl)-1H-pyrazol-4-yl) pyrazolo [1,5-a] pyrimidin-5-amine]
28 | 40.9 | CC(Nc1ccn2ncc(-c3cnn(C(F)F)c3)c2n1)c1cc(F)ccc1OCCO (stereo not drawn) [Compound a8-13, 2-(2-(1-((3-(1-(difluoromethyl)-1H-pyrazol-4-yl)pyrazolo [1,5-a]pyrimidin-5-yl)amino)ethyl)-4-fluorophenoxy) ethanol]
29 | 3.3 | C[C@@H](Nc1ccn2ncc(-c3cnn(CC#N)c3)c2n1)c1cc(F)ccc1OCCF [Compound a12-19, (R)-2-(4-(5-((1-(5-fluoro-2-(2-fluoroethoxy)phenyl)ethyl)amino)pyrazolo [1,5-a]pyrimidin-3-yl)-1H-pyrazol-1-yl) acetonitrile]
30 | 7.6 | CC(Nc1ccn2ncc(-c3cnn(C4CCCC4O)c3)c2n1)c1cc(F)ccc1OCCF (stereo not drawn) [Compound a17-24, 2-(4-(5-((1-(5-fluoro-2-(2-fluoroethoxy)phenyl)ethyl)amino)pyrazolo [1,5-a]pyrimidin-3-yl)-1H-pyrazol-1-yl) cyclopentan-1-ol]
31 | 2.8 | C[C@@H](Nc1ccn2ncc(-c3cnn(C4CCCCO4)c3)c2n1)c1cc(F)ccc1OCCF (stereo partly drawn) [Compound a20-27, N-((R)-1-(5-fluoro-2-(2-fluoroethoxy)phenyl)ethyl)-3-(1-(tetrahydro-2H-pyran-2-yl)-1H-pyrazol-4-yl) pyrazolo [1,5-a] pyrimidin-5-amine]
32 | 4.2 | CC(Nc1ccn2ncc(-c3cn[nH]c3)c2n1)c1cc(F)ccc1OCC1CC1 (stereo not drawn) [Compound b12-37, N-(1-(2-(cyclopropylmethoxy)-5-fluorophenyl)ethyl)-3-(1H-pyrazol-4-yl) pyrazolo [1,5-a] pyrimidin-5-amine]
33 | 364 | CC(Nc1ccn2ncc(-c3cn[nH]c3)c2n1)c1cc(F)ccc1OCCN1CCOCC1 (stereo not drawn) [Compound b16-44, N-(1-(5-fluoro-2-(2-morpholinoethoxy)phenyl)ethyl)-3-(1H-pyrazol-4-yl) pyrazolo [1,5-a] pyrimidin-5-amine]
